BigSolDB 2.1

COC(=O)c1ccnc(N)c1
solubility (mole fraction)
Conditions | 278.15 K | 283.15 K | 288.15 K | 293.15 K | 298.15 K | 303.15 K | 308.15 K | 313.15 K | 318.15 K | 323.15 K
in DMF | 0.00726 | 0.0087 | 0.0105 | 0.0126 | 0.0152 | 0.0183 | 0.0216 | 0.0249 | 0.0292 | 0.0339
in acetonitrile | 0.00539 | 0.00665 | 0.00838 | 0.0104 | 0.0127 | 0.015 | 0.0177 | 0.0206 | 0.0241 | 0.0277
in ethanol | 0.00321 | 0.00385 | 0.0047 | 0.00577 | 0.00694 | 0.00821 | 0.00976 | 0.0114 | 0.0132 | 0.0154
in isopropanol | 0.00385 | 0.0048 | 0.00601 | 0.00728 | 0.00889 | 0.0104 | 0.0122 | 0.0141 | 0.0163 | 0.019
in methanol | 0.00173 | 0.0021 | 0.00255 | 0.00312 | 0.00379 | 0.00453 | 0.00557 | 0.00665 | 0.00798 | 0.00946
in n-propanol | 0.00422 | 0.00528 | 0.00655 | 0.00813 | 0.00977 | 0.0117 | 0.0137 | 0.0163 | 0.019 | 0.0217
in toluene | 0.00824 | 0.00987 | 0.0122 | 0.0147 | 0.0177 | 0.0208 | 0.0243 | 0.0282 | 0.0327 | 0.0377
in water | 0.000935 | 0.00117 | 0.00142 | 0.00178 | 0.00217 | 0.00258 | 0.00302 | 0.00356 | 0.00416 | 0.00489
